Measurements published in US20200131161A1, “NOVEL POCHONIOLIDE COMPOUND AND USE THEREOF” (THE KITASATO INSTITUTE, priority 2017, published 2020).

Columns and labels:
[1] = Solubility (physicochemical properties); conditions: DMSO, acetone, water, methanol
[2] = system: Bacillus subtilis ATCC 6633, Micrococcus luteus ATCC 9341, Escherichia coli NIHJKB213, Xanthomonas campestris pv. oryzae KB 88, Candida albicans KF1, Mucor …; type: cell-based
[3] = Effects for decreasing acrylamide in model food (french fries); conditions: test compound at final concentration of 1% applied to formed potatoes, fried in oil at 170 to 200 degrees for 1 minute; for concentration of acrylamide produced: control 7 ppm
Description: Pochoniolides B and C were evaluated in terms of effects of decreasing acrylamide in a model food (french fries) using dihydroquercetin as a positive control. Commercially available frozen french fries (raw) were thawed and a portion of 10 g was separated. The portion of 10 g was ground in a mortar and formed into individual homogeneous portions of 1 g each, followed by forming. The test compounds were dissolved in a small amount of ethanol to a final concentration of 1%. The ethanol solution was homogeneously applied to the formed potatoes. The potatoes were fried in oil at 170 to 200 degrees for 1 minute, and measurement of the acrylamide concentration was requested to Morinaga Institute of Biological Science, Inc. The results are shown in FIG. 7. While the concentration of acrylamide produced was 7 ppm with the addition of control sample, the concentration of acrylamide produced was 4 ppm with the addition of dihydroquercetin as a positive control. No effects of pochoniolide B for decreasing the amount of acrylamide production were observed. The concentration of acrylamide produced was 2 ppm in the group to which pochoniolide C was added.

[4] = system: HeLaS3 cells, A549 cells, H1299 cells, HT29 cells, Pancl cells, Jurkat cells, HL60 cells, THP-1 cells; experiment: Cytotoxicity test in vitro, cell viability by WST-8; type: cell-based; conditions: at 100 μM, all eight human cell lines, culture for 2 days
Description: Cytotoxicity of the pochoniolides of the present invention on various cells was tested. Human cervical cancer-derived HeLaS3 cells, human lung cancer-derived A549 cells, human lung cancer-derived H1299 cells (not expressing p53), human colon adenocarcinoma HT29 cells, human pancreatic cancer […], human acute T cell leukemia-derived Jurkat cells, human promyelocyte leukemia HL60 cells, and human acute monocytic leukemia THP-1 cells were subjected to evaluation of cytotoxicity by measuring cell viability using WST-8 (Dojindo Laboratories). The cells that had reached 80% confluence were counted using a hemocytometer, and a cell suspension was prepared. The cell suspension was dispensed into each well of a 96-well microplate at 100 μl/well using multichannel pipettes. Only a medium was added to a blank (background) well in an amount of 100 μl. HeLaS3 cells, A549 cells, H1299 cells, HT29 cells, and […] cultured for 24 hours in a CO2-incubator, Jurkat cells, HL60 cells, and THP-1 cells were cultured for 1 to 2 hours in a CO2-incubator. Solutions of the compounds diluted 3-fold from 10 mM to 100 μM in methanol or dimethyl sulfoxide were prepared, and the resulting solutions were then added at 1 μl/well (final concentration: 100 μM to 1 μM). After culture was performed for 2 days, 10 μl of the WST-8 reagent was introduced into each well, culture was performed for 30 to 60 minutes, and the absorbance at 460 nm was measured. The cell viability was determined in accordance with the following equation. Cell viability (%)=[(As-Ab)/(Ac-Ab)]×100 • As: Absorbance of sample (a well containing cells, pochoniolide A, B, or C, and a WST-8 solution) • Ac: Absorbance of control (a well containing cells and a WST-8 solution without pochoniolide A, B, or C) • Ab: Absorbance of blank (a well containing a medium and a WST-8 solution without cells)

[5] = Acrylamide produced by Maillard reaction using a mixture of asparagine and glucose (Morinaga acrylamide EIA kit); conditions: compound at 6 mg/ml final concentration; heated in autoclave 121° C. 20 minutes; untreated sample 51 ng/ml
Description: An aqueous solution (0.25 ml) of 100 mg/ml glucose (Wako Pure Chemical Corporation) treated with Chelex 100 (Bio-Rad Laboratories, Inc.) and an aqueous solution (0.5 ml) of 50 mg/ml asparagine (Wako Pure Chemical Corporation) treated with Chelex 100 (Bio-Rad Laboratories, Inc.) were introduced into a 1.5-ml microtube. Pochoniolides A, B, and C dissolved in methanol to a fmal concentration of 6 mg/ml and dihydroquercetin (final concentration 10% methanol) as a positive control were added, and the total amount of the solution was adjusted to 1.0 ml with the addition of distilled water. After the resultant was heated in an autoclave at 121° C. for 20 minutes, the amount of acrylamide produced was measured with the use of Morinaga acrylamide EIA kit (Morinaga Institute of Biological Science, Inc.) in accordance with the protocols.

Compound | Solubility [1] | antibacterial activity (growth-inhibiting circle) [2] | effects for decreasing the amount of acrylamide production [3] | cytotoxicity (cell viability) [4] | amount of acrylamide produced [5] [ng/mL] | concentration of acrylamide produced [3] [ppm]
pochoniolide B | easily soluble in DMSO and acetone, but hardly soluble in water and methanol | no antibacterial activity | No effects | no toxicity | 9 | 
O=C(O)CC1OC(=O)C=C1C1Oc2cc(O)cc(O)c2C(=O)C1O (stereo not shown) [pochoniolide C] | easily soluble in DMSO and acetone, but hardly soluble in water and methanol | no antibacterial activity |  | no toxicity | 18 | 2
O=C(O)CC1OC(=O)C=C1c1coc2cc(O)cc(O)c2c1=O (stereo not shown) [pochoniolide A] | easily soluble in DMSO and acetone, but hardly soluble in water and methanol | no antibacterial activity |  | no toxicity | 53 | 
O=C1c2c(O)cc(O)cc2O[C@H](c2ccc(O)c(O)c2)[C@H]1O [dihydroquercetin, reference compound] |  |  |  |  | 28 | 4
